Experimental data as given in paper PMC11784839, “Monoaminergic neurotransmitters are bimodal effectors of tau aggregation” (Science Advances, 2025).

Molecular target: tau (Homo sapiens, UniProt P10636)
Assay: MCE Phenols Library screening, tau biosensor cell seeding assay (AvZ)
Format: cell-based
Conditions: for Z repl 1 / Z Repl 2: Z score; for Z repl 1 / raw data 1: replicate 1; for Z Repl 2 / raw data 2: replicate 2; for AvZ (average z score of seeding, SDs from the mean level of seeding): 10 μM phenol in cell cultures, AD brain homogenate preincubated 16 hours, two biological replicates, positive = catalyzes seeding, negative = inhibits
[1] = average Z score of two replicates, Phenols Library screen
[2] = average Z score of the two replicates, MCE Phenols Library screen
[3] = average puncta of the two replicates
[4] = average Z score of the two replicates, tau seeding
[5] = average Z score of the two replicates, tau biosensor seeding, MCE Phenols Library screen

Sequence of tau (P10636 623-695 limits assumed): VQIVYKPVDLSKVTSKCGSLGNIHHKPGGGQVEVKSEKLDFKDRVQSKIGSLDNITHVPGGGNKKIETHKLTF

SMILES | Z repl 1 | Z Repl 2 | av Z [1] | av puncta (average of raw data 1 and 2) | raw data 1 (puncta) | raw data 2 (puncta) | av Z [2] | av Z [4] | av Z [5] | av puncta [3] | AvZ (average z score of seeding, SDs from the mean level of seeding) | raw data 1 (raw puncta) | raw data 2 (raw puncta)
O=C(/C=C/c1ccc(O)c(O)c1)O[C@@H]1C[C@](O)(C(=O)O)C[C@@H](OC(=O)/C=C/c2ccc(O)c(O)c2)[C@H]1O [Isochlorogenic acid A] | -0.182 | 0.275 | 0.046 | 19930.3 | 24161.4 | 15699.2 | – | – | – | – | – | – | –
COc1ccc2c(c1O)-c1c(OC)c(OC)cc3c1[C@H](C2)N(C)CC3 [Isocorydine] | -0.45 | -0.651 | – | – | 20943.6 | 5817.19 | -0.55 | – | – | 13380.4 | – | – | –
C/C=C/c1ccc(OC(C)=O)c(OC)c1 [Isoeugenol acetate] | -0.788 | 0.239 | – | – | – | – | – | – | – | 16103.3 | -0.275 | 16893.4 | 15313.2
COc1ccc2c(=O)c(-c3ccc(O)cc3)coc2c1 [Isoformononetin] | 0.35 | -0.155 | 0.098 | 20831 | 30549.1 | 11112.8 | – | – | – | – | – | – | –
COc1cc2ccc(=O)oc2c(OC)c1O [Isofraxidin] | 0.211 | 0.742 | – | 24789.8 | 28887.4 | 20692.2 | – | 0.477 | – | – | – | – | –
COc1ccc(C[C@@H]2c3cc(Oc4cc(C[C@@H]5c6cc(O)c(OC)cc6CCN5C)ccc4O)c(OC)cc3CCN2C)cc1 [Isoliensinine] | 0.107 | 0.423 | – | 22459.5 | 27639.6 | 17279.4 | – | 0.265 | – | – | – | – | –
O=C(/C=C/c1ccc(O)cc1)c1ccc(O)cc1O [Isoliquiritigenin] | 0.483 | 0.177 | – | 23402.5 | 32143.5 | 14661.5 | – | 0.33 | – | – | – | – | –
O=c1c2cc(O)c(O)cc2oc2c([C@@H]3O[C@H](CO)[C@@H](O)[C@H](O)[C@H]3O)c(O)cc(O)c12 [Isomangiferin] | 0.307 | 0.537 | – | 24267.1 | 30032.6 | 18501.6 | – | 0.422 | – | – | – | – | –
O=c1cc(-c2ccc(O)c(O)c2)oc2cc(O)c([C@@H]3O[C@H](CO)[C@@H](O)[C@H](O)[C@H]3O)c(O)c12 [Isoorientin] | 0.708 | 0.042 | – | 24030.3 | 34846.9 | 13213.7 | – | 0.375 | – | – | – | – | –
COc1cc(/C=C/C(=O)OC(C)C)ccc1O [Isopropyl ferulate] | 0.168 | -0.833 | – | – | – | – | – | – | – | 16119 | -0.332 | 28366.5 | 3871.42
COc1cc(-c2oc3cc(O)cc(O)c3c(=O)c2O)ccc1O [Isorhamnetin] | 0.124 | -0.648 | – | – | – | – | -0.262 | – | – | 16840.7 | – | 27835.2 | 5846.21
COc1ccc(C=O)cc1O [Isovanillin] | -0.326 | -0.711 | – | – | 22438.6 | 5167.88 | – | – | – | 13803.3 | -0.519 | – | –
O=c1cc(-c2ccc(O)cc2)oc2cc(O)c([C@@H]3O[C@H](CO)[C@@H](O)[C@H](O)[C@H]3O)c(O)c12 [Isovitexin] | 0.953 | 1.769 | – | 34727.5 | 37791.5 | 31663.6 | – | – | 1.361 | – | – | – | –
COc1cc2c(cc1O)CC[n+]1cc3c(OC)c(OC)ccc3cc1-2.[Cl-] [Jatrorrhizine (chloride)] | 0.505 | -0.062 | – | 22254 | 32409.6 | 12098.4 | – | 0.221 | – | – | – | – | –

The next lines start with results.

Z repl 1 | Z Repl 2 | av Z [1] | av puncta (average of raw data 1 and 2) | raw data 1 (puncta) | raw data 2 (puncta) | av Z [2] | av Z [4] | av Z [5] | SMILES | av puncta [3] | AvZ (average z score of seeding, SDs from the mean level of seeding) | raw data 1 (raw puncta) | raw data 2 (raw puncta)
0.174 | -0.844 | – | – | – | – | -0.335 | – | – | O=c1c(O[C@@H]2O[C@H](CO)[C@@H](O)[C@H](O)[C@H]2O)c(-c2ccc(O)c(O)c2)oc2cc(O)cc(O)c12 [Isoquercetin] | 16096.8 | – | 28442.1 | 3751.47
1.299 | 0.571 | – | 30407 | 41947.4 | 18866.6 | – | – | 0.935 | COc1cc(/C=C/c2cc(O)cc(O)c2)ccc1O [Isorhapontigenin] | – | – | – | –
-0.121 | -0.131 | -0.126 | 18128.6 | 24892.1 | 11365.2 | – | – | – | O=c1cc(-c2ccc(O)cc2)oc2c([C@@H]3O[C@H](CO)[C@@H](O)[C@H](O)[C@H]3O)c(O)c([C@@H]3OC[C@H](O)[C@H](O)[C@H]3O)c(O)c12 [Isoschaftoside] | – | – | – | –
0.248 | -0.549 | – | 18113.3 | 29328.9 | 6897.73 | – | – | – | COc1ccc(C(=O)O)cc1O [Isovanillic acid] | – | -0.151 | – | –
-0.906 | -0.245 | – | – | 15471.3 | 10150.6 | -0.575 | – | – | O=c1cc(-c2ccc(O)cc2)oc2cc(O)c([C@@H]3O[C@H](CO)[C@@H](O)[C@H](O)[C@H]3O[C@@H]3OC[C@H](O)[C@H](O)[C@H]3O)c(O)c12 [Isovitexin 2''-O-arabinoside] | 12810.9 | – | – | –
1.473 | 0.443 | – | 30766.9 | 44034.1 | 17499.7 | – | – | 0.958 | COc1cc(-c2cc(=O)c3c(O)c(OC)c(O)cc3o2)ccc1O [Jaceosidin] | – | – | – | –
0.183 | -0.42 | -0.118 | 18414.7 | 28546.2 | 8283.25 | – | – | – | COc1ccc(CCO[C@@H]2O[C@H](CO[C@@H]3O[C@H](CO)[C@H](O)[C@H](O)[C@H]3O)[C@@H](OC(=O)/C=C/c3ccc(O)c(OC)c3)[C@H](O[C@@H]3O[C@@H](C)[C@H](O)[C@@H](O)[C@H]3O)[C@H]2O)cc1O [Jionoside B1] | – | – | – | –
-0.102 | -1.05 | – | – | 25119.1 | 1554.77 | -0.576 | – | – | COc1ccc(-c2oc3cc(O)cc(O)c3c(=O)c2O)cc1 [Kaempferide] | 13337 | – | – | –
-1.403 | -0.446 | – | 8757.09 | 9507.36 | 8006.82 | -0.924 | – | – | C[C@@H]1O[C@@H](Oc2cc(O)c3c(=O)c(O[C@@H]4O[C@@H](C)[C@H](O)[C@@H](O)[C@H]4O)c(-c4ccc(O)cc4)oc3c2)[C@H](O)[C@H](O)[C@H]1O [Kaempferitrin] | – | – | – | –
